PMC2860105 (Science (New York, N.Y.), 2010)
pIC50: −log10 of the molar value. Blank lines part the entries; values can stand above or below the compound they belong to.

What was measured:
Vps34 = test: in vitro inhibition of Vps34; assay type: biochemical
p110γ = p110γ (Homo sapiens, UniProt P48736); test: in vitro inhibition of class I PI3K p110γ; assay type: biochemical
Chain of p110γ (P48736 whole entry, species assumed): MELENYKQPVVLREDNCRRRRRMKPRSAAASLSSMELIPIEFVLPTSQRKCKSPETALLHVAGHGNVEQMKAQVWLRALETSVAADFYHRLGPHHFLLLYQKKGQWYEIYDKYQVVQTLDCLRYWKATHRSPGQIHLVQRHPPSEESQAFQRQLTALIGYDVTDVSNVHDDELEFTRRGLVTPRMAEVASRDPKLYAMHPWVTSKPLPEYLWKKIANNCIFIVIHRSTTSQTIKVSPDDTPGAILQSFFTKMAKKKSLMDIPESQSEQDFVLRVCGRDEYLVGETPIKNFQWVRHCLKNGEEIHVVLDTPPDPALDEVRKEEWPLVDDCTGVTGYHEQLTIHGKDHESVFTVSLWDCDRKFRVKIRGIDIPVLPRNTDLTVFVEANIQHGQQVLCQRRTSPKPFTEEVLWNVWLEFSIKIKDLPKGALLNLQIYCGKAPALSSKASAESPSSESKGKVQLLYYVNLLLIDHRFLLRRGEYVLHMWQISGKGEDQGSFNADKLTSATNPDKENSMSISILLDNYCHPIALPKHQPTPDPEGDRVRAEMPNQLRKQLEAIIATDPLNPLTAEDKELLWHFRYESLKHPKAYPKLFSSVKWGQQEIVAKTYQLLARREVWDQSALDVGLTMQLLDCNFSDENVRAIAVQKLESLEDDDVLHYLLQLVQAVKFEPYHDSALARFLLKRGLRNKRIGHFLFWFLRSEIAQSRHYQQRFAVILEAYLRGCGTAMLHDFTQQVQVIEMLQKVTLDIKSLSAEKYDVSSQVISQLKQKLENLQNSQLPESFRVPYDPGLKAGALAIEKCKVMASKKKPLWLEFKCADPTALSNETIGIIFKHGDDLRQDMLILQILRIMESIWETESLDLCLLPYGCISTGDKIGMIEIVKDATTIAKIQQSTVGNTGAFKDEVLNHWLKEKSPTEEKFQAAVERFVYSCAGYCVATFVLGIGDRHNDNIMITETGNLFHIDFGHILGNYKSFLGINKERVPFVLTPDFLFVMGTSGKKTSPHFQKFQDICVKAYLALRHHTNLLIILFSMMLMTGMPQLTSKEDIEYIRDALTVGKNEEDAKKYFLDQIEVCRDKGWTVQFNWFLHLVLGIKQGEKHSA

Compound: CC(=O)Nc1nc(C)c(-c2ccc(Cl)c(S(=O)(=O)NCCO)c2)s1 [PIK-93, reference compound]
IC50 of PIK-93 relative to PIK-90 (in words) (Vps34; Fig. S8): lower IC50

change in IC50 relative to PIK-93 (in words) (Vps34; analogues of PIK-93, Fig. S9): little change in IC50 | pIC50 (Vps34; read-out: IC50 for Vps34, in vitro, Fig. S9): 7.06 | increase in IC50 for PI3Kγ (p110γ) compared to PIK93 (p110γ; ratio of IC50 values vs PIK93): > 10 fold | pIC50 (p110γ; read-out: IC50 for the most potently inhibited Class I PI3K (p110γ), in vitro, Fig. S9): 7.21
Compound: COc1ccc(-c2sc(NC(C)=O)nc2C)cc1S(=O)(=O)NCCO [PT21]

Compound: Cn1cnc(N)c2ncnc1-2 [3-MA, 3-methyladenine, reference compound]
specificity for Vps34 versus other PI3Ks (in words) (Vps34; in vitro assays, Fig. S8, Fig. 4G): preference for Vps34
